Test results from ChEMBL document CHEMBL5696441 (Nat Chem Biol, 2011).

Tests used:
[1] = target: Calcium/calmodulin-dependent protein kinase kinase 1 (Homo sapiens) (UniProt Q8N5S9); assay: Inhibition of CAMKK1 (unknown origin) assessed as remaining activity at 1 uM by Kinome scan method relative to control
[2] = target: Wee1-like protein kinase 2 (Homo sapiens) (UniProt P0C1S8); assay: Inhibition of WEE2 (unknown origin) assessed as remaining activity at 1 uM by Kinome scan method relative to control
[3] = test system: Mast/stem cell growth factor receptor Kit (Homo sapiens), P10721 [T670I]; assay: Inhibition of human KIT T670I mutant assessed as residual activity at 1 uM using polyEY as substrate in presence of 33P-ATP by ProQinase assay relative to control
[4] = target: Serine/threonine-protein kinase MRCK alpha (Homo sapiens) (UniProt Q5VT25); assay: Inhibition of human CDC42BPA assessed as residual activity at 1 uM using RB-S6P as substrate in presence of 33P-ATP by ProQinase assay relative to control
[5] = target: BDNF/NT-3 growth factors receptor (Homo sapiens) (UniProt Q16620); assay: Inhibition of human TRKB assessed as residual activity at 1 uM using polyEY as substrate in presence of 33P-ATP by ProQinase assay relative to control
[6] = target: Calcium/calmodulin-dependent protein kinase type II subunit beta (Homo sapiens) (UniProt Q13554); assay: Inhibition of CAMK2B (unknown origin) assessed as remaining activity at 1 uM by Kinome scan method relative to control
[7] = target: Mitogen-activated protein kinase 3 (Homo sapiens) (UniProt P27361); assay: Inhibition of ERK1 (unknown origin) assessed as remaining activity at 1 uM by Kinome scan method relative to control
[8] = target: Vascular endothelial growth factor receptor 3 (Homo sapiens) (UniProt P35916); assay: Inhibition of FLT4 (unknown origin) assessed as remaining activity at 1 uM by Kinome scan method relative to control
[9] = target: T1, Muscle, skeletal receptor tyrosine-protein kinase (Homo sapiens) (UniProt O15146); assay: Inhibition of human MUSK assessed as residual activity at 1 uM using Poly(Ala,Glu,Lys,Tyr)6:2:5:1 as substrate in presence of 33P-ATP by ProQinase assay relative to control
T1 sequence (whole entry): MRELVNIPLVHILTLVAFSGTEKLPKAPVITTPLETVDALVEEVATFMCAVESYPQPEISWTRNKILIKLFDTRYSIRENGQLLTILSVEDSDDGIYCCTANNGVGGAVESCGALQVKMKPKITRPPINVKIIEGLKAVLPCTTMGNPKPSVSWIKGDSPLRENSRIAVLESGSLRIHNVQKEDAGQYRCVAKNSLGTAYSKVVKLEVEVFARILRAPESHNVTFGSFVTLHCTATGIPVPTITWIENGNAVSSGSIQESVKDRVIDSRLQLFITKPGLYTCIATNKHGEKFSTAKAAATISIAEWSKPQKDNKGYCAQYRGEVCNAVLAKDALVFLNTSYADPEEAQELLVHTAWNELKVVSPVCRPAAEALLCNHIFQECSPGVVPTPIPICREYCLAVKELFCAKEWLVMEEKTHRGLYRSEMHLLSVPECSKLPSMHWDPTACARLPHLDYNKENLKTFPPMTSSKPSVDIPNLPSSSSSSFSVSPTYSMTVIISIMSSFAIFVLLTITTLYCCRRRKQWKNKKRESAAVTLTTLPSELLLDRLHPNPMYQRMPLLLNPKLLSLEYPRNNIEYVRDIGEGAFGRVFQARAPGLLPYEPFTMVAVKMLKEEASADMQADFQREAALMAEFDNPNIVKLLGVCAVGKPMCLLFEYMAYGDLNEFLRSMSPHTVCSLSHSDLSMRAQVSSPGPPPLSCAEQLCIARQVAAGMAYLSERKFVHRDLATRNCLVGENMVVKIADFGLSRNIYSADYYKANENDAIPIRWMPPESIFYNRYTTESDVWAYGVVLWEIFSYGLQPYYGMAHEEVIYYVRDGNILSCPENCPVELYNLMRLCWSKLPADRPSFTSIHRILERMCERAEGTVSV

[10] = target: Receptor tyrosine-protein kinase erbB-2 (Homo sapiens) (UniProt P04626); assay: Inhibition of ERBB2 (unknown origin) assessed as remaining activity at 1 uM by Kinome scan method relative to control
[11] = target: Ribosomal protein S6 kinase alpha-6 (Homo sapiens) (UniProt Q9UK32); assay: Inhibition of human RPS6KA6 assessed as residual activity at 1 uM using RBER-GSK3(14-27) as substrate in presence of 33P-ATP by ProQinase assay relative to control
[12] = target: Ribosomal protein S6 kinase alpha-6 (Homo sapiens) (UniProt Q9UK32); assay: Inhibition of N-terminal kinase domain RPS6KA6 (unknown origin) assessed as remaining activity at 1 uM by Kinome scan method relative to control
[13] = test system: Epidermal growth factor receptor (Homo sapiens), P00533 [L858R]; assay: Inhibition of human EGFR L858R mutant assessed as residual activity at 1 uM using PolyEY as substrate in presence of 33P-ATP by ProQinase assay relative to control
[14] = Anti-inflammatory activity against human derived medium respond PBMC cells assessed as inhibition in stimulated IP-10 chemokine release incubated for 2 hrs in the presence of LPS/SEB/aCD28 by Luminex based sandwich immunoassay; type: functional, cell-based
[15] = target: Serine/threonine-protein kinase WNK2 (Homo sapiens) (UniProt Q9Y3S1); assay: Inhibition of human WNK2 assessed as residual activity at 1 uM using RBER-CHKtide as substrate in presence of 33P-ATP by ProQinase assay relative to control
[16] = target: T2, Serine/threonine-protein kinase 17A (Homo sapiens) (UniProt Q9UEE5); assay: Inhibition of human STK17A assessed as residual activity at 1 uM using RB-CTF as substrate in presence of 33P-ATP by ProQinase assay relative to control
T2 sequence (whole entry): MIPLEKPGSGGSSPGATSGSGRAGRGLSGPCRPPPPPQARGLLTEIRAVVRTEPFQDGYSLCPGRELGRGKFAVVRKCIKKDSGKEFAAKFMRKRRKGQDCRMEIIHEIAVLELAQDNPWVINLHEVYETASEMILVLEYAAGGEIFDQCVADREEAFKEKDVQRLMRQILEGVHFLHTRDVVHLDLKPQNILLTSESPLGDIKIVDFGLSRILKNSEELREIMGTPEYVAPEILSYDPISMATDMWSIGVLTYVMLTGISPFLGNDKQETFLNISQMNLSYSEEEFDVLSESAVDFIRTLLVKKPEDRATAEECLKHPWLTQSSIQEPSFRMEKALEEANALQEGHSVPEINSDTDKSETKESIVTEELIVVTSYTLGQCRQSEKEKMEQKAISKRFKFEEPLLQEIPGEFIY

[17] = target: Mitogen-activated protein kinase 9 (Homo sapiens) (UniProt P45984); assay: Inhibition of human JNK2 assessed as residual activity at 1 uM using ATF2 as substrate in presence of 33P-ATP by ProQinase assay relative to control

Ribosomal protein S6 kinase alpha-6 (Homo sapiens), sequence (Q9UK32 whole entry, the tested form may be a part): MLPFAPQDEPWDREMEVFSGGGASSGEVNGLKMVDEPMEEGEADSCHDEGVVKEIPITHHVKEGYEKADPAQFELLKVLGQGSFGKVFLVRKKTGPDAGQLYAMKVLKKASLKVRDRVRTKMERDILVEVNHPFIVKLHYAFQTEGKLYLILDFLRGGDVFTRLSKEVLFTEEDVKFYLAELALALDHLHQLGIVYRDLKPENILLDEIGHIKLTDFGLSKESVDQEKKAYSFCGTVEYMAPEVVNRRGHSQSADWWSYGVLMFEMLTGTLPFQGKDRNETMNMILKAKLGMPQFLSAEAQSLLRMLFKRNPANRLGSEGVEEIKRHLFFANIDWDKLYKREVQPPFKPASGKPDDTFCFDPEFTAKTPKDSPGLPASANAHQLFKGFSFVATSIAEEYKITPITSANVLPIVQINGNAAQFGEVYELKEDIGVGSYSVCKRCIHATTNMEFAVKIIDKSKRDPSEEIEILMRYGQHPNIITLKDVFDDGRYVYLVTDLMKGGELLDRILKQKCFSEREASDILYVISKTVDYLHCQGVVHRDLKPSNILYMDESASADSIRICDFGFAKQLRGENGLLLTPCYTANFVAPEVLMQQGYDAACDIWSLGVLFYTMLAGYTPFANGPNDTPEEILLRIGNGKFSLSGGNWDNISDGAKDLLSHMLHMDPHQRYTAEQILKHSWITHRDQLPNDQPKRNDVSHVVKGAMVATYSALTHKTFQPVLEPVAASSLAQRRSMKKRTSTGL
BDNF/NT-3 growth factors receptor (Homo sapiens), sequence (Q16620 32-822 limits assumed): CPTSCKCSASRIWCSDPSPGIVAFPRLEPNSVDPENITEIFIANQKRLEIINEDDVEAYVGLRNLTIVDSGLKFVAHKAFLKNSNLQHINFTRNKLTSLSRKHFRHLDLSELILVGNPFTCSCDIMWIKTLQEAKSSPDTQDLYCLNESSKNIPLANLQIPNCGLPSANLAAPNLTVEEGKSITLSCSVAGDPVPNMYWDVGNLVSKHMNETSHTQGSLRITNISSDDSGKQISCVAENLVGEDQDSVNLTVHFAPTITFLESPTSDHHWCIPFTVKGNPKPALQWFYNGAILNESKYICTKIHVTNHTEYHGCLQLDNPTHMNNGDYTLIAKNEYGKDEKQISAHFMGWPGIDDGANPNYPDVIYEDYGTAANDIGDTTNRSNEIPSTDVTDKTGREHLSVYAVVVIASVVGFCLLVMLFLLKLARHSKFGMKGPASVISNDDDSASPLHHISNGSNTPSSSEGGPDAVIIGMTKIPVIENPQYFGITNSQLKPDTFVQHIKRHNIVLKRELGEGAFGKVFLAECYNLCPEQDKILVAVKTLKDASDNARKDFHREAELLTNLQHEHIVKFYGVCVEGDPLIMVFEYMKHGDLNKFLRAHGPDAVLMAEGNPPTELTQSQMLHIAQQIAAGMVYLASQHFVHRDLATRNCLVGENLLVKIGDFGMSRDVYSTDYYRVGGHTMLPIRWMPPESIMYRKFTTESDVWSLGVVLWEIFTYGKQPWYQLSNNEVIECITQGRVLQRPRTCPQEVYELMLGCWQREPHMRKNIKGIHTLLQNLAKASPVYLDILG
Mitogen-activated protein kinase 3 (Homo sapiens), sequence (P27361 whole entry): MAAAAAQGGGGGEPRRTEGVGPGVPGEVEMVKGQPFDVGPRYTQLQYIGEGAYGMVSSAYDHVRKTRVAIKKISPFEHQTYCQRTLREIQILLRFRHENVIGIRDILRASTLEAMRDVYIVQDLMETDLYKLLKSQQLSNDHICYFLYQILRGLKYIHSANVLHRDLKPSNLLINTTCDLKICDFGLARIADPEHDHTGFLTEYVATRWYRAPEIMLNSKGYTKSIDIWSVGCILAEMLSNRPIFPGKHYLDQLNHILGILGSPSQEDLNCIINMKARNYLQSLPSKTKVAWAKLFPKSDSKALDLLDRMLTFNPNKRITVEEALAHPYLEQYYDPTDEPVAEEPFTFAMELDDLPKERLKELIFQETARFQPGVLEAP
Calcium/calmodulin-dependent protein kinase kinase 1 (Homo sapiens), sequence (Q8N5S9 whole entry, looked up): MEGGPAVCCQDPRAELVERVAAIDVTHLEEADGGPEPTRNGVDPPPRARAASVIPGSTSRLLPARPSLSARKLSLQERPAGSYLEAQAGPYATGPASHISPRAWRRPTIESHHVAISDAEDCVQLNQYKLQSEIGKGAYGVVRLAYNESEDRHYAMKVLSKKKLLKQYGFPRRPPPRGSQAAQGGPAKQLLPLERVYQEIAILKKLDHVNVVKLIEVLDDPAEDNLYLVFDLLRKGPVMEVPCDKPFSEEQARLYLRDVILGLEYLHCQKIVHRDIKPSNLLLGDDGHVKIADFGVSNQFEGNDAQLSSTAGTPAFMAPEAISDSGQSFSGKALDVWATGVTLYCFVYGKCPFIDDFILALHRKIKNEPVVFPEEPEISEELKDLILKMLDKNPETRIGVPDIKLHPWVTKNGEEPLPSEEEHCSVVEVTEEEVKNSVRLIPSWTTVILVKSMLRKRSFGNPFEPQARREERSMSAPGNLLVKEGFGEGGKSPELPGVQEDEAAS
Vascular endothelial growth factor receptor 3 (Homo sapiens), sequence (P35916 whole entry): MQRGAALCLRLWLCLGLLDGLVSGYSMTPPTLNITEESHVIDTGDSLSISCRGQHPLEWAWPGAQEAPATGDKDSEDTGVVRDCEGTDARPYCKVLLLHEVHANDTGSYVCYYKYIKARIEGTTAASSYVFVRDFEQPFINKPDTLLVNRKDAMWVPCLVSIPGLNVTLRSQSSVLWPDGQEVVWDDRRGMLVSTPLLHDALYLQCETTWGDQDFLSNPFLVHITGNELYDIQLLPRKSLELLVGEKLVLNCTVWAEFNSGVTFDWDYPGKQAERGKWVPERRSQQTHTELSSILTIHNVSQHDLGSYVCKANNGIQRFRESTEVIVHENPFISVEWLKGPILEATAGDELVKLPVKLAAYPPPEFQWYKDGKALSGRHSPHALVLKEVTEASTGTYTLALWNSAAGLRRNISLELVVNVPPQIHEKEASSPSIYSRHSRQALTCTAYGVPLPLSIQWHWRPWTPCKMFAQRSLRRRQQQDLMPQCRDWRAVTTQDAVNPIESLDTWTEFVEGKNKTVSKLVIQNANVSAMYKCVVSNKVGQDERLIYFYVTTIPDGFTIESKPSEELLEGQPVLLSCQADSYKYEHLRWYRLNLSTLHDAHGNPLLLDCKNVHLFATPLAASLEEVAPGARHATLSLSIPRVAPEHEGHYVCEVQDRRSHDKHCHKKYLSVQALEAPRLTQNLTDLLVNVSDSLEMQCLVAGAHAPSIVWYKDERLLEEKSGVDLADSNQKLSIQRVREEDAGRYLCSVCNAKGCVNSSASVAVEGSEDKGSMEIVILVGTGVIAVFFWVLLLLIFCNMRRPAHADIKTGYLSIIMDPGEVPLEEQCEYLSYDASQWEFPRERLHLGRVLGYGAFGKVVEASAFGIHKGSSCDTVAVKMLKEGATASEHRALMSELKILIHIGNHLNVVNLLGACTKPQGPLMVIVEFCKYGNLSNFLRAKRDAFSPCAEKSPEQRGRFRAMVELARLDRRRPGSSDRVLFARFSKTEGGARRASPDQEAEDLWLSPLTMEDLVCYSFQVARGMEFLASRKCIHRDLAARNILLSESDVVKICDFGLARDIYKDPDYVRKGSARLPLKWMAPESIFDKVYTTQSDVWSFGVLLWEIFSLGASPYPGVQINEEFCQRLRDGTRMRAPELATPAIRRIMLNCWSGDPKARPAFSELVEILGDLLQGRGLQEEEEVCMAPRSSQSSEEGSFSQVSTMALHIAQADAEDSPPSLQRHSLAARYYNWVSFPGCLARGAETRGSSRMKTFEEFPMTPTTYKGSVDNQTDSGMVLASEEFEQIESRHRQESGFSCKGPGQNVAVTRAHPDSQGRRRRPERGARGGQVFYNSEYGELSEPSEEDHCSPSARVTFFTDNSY
Receptor tyrosine-protein kinase erbB-2 (Homo sapiens), sequence (P04626 whole entry): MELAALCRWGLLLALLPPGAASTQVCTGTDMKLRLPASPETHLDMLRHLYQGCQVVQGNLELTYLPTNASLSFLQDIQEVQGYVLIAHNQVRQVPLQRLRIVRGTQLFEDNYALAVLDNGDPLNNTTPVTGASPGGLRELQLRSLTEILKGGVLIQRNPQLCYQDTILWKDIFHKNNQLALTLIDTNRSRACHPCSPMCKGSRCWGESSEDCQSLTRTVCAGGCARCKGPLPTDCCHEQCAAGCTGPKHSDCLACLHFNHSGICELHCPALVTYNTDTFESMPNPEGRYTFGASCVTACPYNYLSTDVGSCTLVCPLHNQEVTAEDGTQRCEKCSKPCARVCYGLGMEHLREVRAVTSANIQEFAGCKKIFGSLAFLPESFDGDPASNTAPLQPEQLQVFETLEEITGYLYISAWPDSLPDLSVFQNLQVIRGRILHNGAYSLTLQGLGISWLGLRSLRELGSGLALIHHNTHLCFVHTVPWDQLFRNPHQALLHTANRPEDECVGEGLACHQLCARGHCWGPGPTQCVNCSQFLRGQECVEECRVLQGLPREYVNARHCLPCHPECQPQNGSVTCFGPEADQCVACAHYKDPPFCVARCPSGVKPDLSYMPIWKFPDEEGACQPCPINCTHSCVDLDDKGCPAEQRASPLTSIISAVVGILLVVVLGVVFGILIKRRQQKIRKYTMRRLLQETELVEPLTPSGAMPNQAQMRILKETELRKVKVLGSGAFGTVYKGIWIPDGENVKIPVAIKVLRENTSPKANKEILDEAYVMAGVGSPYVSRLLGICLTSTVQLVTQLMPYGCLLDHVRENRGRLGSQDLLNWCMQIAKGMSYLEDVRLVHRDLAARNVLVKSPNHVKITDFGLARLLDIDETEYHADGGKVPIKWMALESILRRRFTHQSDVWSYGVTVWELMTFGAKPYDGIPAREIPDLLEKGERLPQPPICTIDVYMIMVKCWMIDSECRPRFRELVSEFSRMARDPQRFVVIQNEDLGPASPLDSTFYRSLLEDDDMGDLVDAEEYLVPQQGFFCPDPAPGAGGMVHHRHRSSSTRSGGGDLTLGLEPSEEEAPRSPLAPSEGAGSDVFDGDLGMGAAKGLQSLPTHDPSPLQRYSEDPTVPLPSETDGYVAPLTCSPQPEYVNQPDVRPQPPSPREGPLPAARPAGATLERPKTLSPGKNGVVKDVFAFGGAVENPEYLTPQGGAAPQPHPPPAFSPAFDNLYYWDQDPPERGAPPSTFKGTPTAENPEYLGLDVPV

O=C1c2ccc(Nc3ccc(F)cc3F)cc2CCc2ccc(OC[C@H](O)CO)cc21 [Skepinone-L]
Activity [1]: 100%
Activity [2]: 90%
Activity [3]: 145%
Activity [4]: 98%
Activity [5]: 77%
Activity [6]: 100%
Activity [7]: 100%
Activity [8]: 97%
Activity [9]: 106%
Activity [10]: 100%
Activity [11]: 85%
Activity [12]: 90%
Activity [13]: 89%
IC50 [14]: 5.9 µM
Activity [15]: 95%
Activity [16]: 77%
Activity [17]: 58%
